The text below walks through data of patent US11040056B2, “Benzimidazoles that enhance the activity of oligonucleotides” (The University of North Carolina at Chapel Hill, priority 2018, dated 2021).

One data set has as its system HeLaLuc705 cells. The data set can be described thus: SSO-mediated luciferase induction assay. It is filed as cell-based. The note with it: for EC50: luciferase induction by SSO623. How it is done:
FIG. 1B-1E. Effects with SSOs. FIG. 1B Structure of UNC2383. […] The cells were then rinsed and incubation continued for an additional 4 h in DMEM+10% FBS. Cells were rinsed twice in PBS and luciferase activity (RLU) and cell protein determined. The larger round symbol indicates the MM oligonucleotide. Means+/−SE. N=3. […] The cells were further incubated and then luciferase and protein determined. The total time of incubation in each case was 6 h. […] Means+/−SE. N=3.
(§1) FIG. 3. Effect and Cytotoxicity of Analogs. The effect of selected UNC2383 analogs on luciferase induction by SSO623 was measured as described in Methods and in the legend of FIG. 1B-1E. Cytotoxicity was measured using the Alamar Blue method as in FIG. 1E. MM10 is the effect of 10 uM compound in the presence of a mismatched oligonucleotide. Means and SE. N=3.
HeLaLuc705 cells are stably transfected with a firefly luciferase reporter whose coding sequence is interrupted by an abnormal intron. […] NIH-3T3-MDR cells are stably transfected with a human MDR1 cDNA coding for the P-glycoprotein (Pgp). We have described the maintenance and use of these cell lines elsewhere. (18, 20)
SSO-mediated luciferase induction assays were conducted as previously described. (18) In short, HeLaLuc705 cells in 24 well culture plates were preincubated with SSO623 followed by brief treatment with the small molecule; at intervals thereafter, luciferase activity and protein content were determined. […] (30)

Data set [1] concerns CFTR channel activity in human bronchial epithelial cells (HBEC) from a 3849+10 kbC-T homozygous patient. In words: Ussing chamber analysis of CFTR function in 3849+10 kbC-T HBEC. The note with it: SSO A 1 uM overnight, OEC 4 uM 2 hs luminal or serosal, 72 h, approved drugs in parallel. It is filed as cell-based. The text has this:
FIG. 11. CFTR activity restored to CF splicing mutation 3849+10 kbC-T using SSOs. SSOs were delivered in vitro by electroporation (˜100% efficiency), CF primary cells were differentiated on permeable supports and tested. Panel A. PCR analysis. The lower band is the correctly spliced CFTR. Panel B. Functional correction by Ussing chamber analysis.
FIG. 12. OEC Mediated Delivery of a SSO in 3849+10 kbC-T HBEC. Well-differentiated human bronchial epithelial cells (HBEC) derived from a 3849+10 kbC-T homozygous patient were incubated with corrective (LNA) SSO A from FIG. 1 (1 uM, overnight). Cells were then incubated with OEC UNC2383 in the luminal or serosal bath (4 uM, 2 hs). Both the SSO and OEC were added in cell growing medium. Seventy two hour later, HBEC were analyzed in Ussing chamber for CFTR function. Orkambi® was tested in parallel inserts.
Results: In vitro studies were performed in well-differentiated HBEC cells derived from a homozygous 3849+10 kbC→T CF patient (CF HBEC) treated with one dose of a specific SSO (1 uM, 12 hs) followed by one dose of OEC (apical or basolateral delivery, 2-4 uM, 2-3 hs). A significant increase of forskolin-stimulated CFTR activity in Ussing chamber analyses was observed 24-96 hs after SSO+OEC treatment compared to SSO alone treatment or vehicle. OEC was efficacious delivered apically as well as basolaterally. Transepithelial resistance and microscopy tests were implemented to monitor cytotoxicity, which was negligible for both SSO and OEC (FIG. 12). In vivo studies were performed in a transgenic mouse model that has a SSO-inducible EGFP reporter.
SSOs (100 nM) were introduced in airway epithelial cells derived from a 3849+10 kbC-T homozygous CF patient in suspension by electroporation using the Neon system, program A4. Cells were differentiated for 2 weeks in culture on human collagen-coated permeable supports (Millipore) before being tested in Ussing chambers following methods described in Kreda et al. […] “Characterization of Wild-Type and ΔF508 Cystic Fibrosis Transmembrane Regulator in Human Respiratory Epithelia” Mol. Biol. Cell 16(5):2154-2167 (100 uM Amiloride, Amil; 10 uM Forskolin, Fsk; 20 uM CFTR inhibitor 172). After Ussing chamber analysis, cells were lysed and assayed for RT-PCR as described in Wang et al 2017 (FIG. 11).
(SEQ ID NO:2), C (5′+G*mA*mG*mU*+C*mU*mU**mU*mA*+C*mU*mC*mA*mC*mC*+A*mU*mU*mU) (SEQ ID NO:3) (Locked Nucleic Acid (LNA)=+, PS=*, 2′OMe=m). In SSO sequences A, B, and C the underlined bases indicate oligo bases that match up to the bases in the mutated splice site in the 3849+10 kb C-T CFTR splicing mutation. MM623 or SSO623 sequences are described herein. […]

Data set [2] can be described thus: Alamar Blue cytotoxicity assay. It counts as cell-based. To be noted: human, HeLa Luc705 cells; Alamar Blue cytotoxicity; read-out: TC50. How it is done: (§2) FIG. 1B-1E. Effects with SSOs. FIG. 1B Structure of UNC2383. FIG. 1C Compound 2383 enhances SSO effects. Cells were incubated in 24-well plates with 100 nM SSO623 or its mismatched control (MM) for 16 h in DMEM+10% FBS, rinsed and then treated with various concentrations of 2383 for 2 h. The cells were then rinsed and incubation continued for an additional 4 h in DMEM+10% FBS. Cells were rinsed twice in PBS and luciferase activity (RLU) and cell protein determined. The larger round symbol indicates the MM oligonucleotide. Means+/−SE. N=3. FIG. 1D Kinetics of 2383 action. Cells were preloaded with 100 nM SSO623 and then exposed to 2383 for various periods after which the compound was removed. The cells were further incubated and then luciferase and protein determined. The total time of incubation in each case was 6 h. FIG. 1E Cytotoxicity of 2383. HeLa Luc705 or NIH-3T3-MDR cells were exposed to 2383 as in (FIG. 1C) then incubated for 24 h in DMEM plus 10% FBS and tested using the Alamar Blue cytotoxicity assay. Means+/−SE. N=3.
as §1
(§3) SSO-mediated luciferase induction assays were conducted as previously described. (18) In short, HeLaLuc705 cells in 24 well culture plates were preincubated with SSO623 followed by brief treatment with the small molecule; at intervals thereafter, luciferase activity and protein content were determined. ASO mediated inhibition of MDR1 gene expression utilized an Alexa 488 labeled anti-P-glycoprotein antibody and flow cytometry to measure Pgp expression as described. (20) The anti-MDR1 sequence is 5′-CCATCccgacctcgcGCTCC-3′(SEQ ID NO: 5) (all phosphorothiopate with 2-O-Me residues in capitals). Cytotoxicity of 2383 was monitored using the Alamar Blue assay. (30)

In another data set the test system is HeLa Luc705 cells. In words: Alamar Blue cytotoxicity assay. It counts as cell-based. The note with it: ratio of cytotoxicity TC50 to luciferase induction EC50. As to the method:
as §2, §1, §3

Data set [3] concerns P-glycoprotein (Pgp) expression in NIH-3T3-MDR cells. The data set can be described thus: ASO mediated inhibition of MDR1 gene expression (Pgp by flow cytometry). It is filed as cell-based, mouse. The note with it: 100 nM anti-MDR1 ASO 16 h; 10 μM UNC2383 2 h where used; 48 h. As to the method:
FIG. 4. Effects with ASOs. Reduction of Pgp expression. NIH 3T3-MDR cells were incubated with 100 nM anti-MDR1 ASO or a mismatched (MM) control for 16 h in DMEM+1% FBS. Cells were rinsed and then treated with 10 μM UNC2383 for 2 h. The compound was removed, and the cells further incubated for 48 h. Expression of Pgp on the cell surface was determined by treating cells with Alexa 488 labeled anti-Pgp monoclonal antibody and binding quantitated by flow cytometry (PE(A)=units of fluorescence intensity). Treatment with ASO complexed with Lipofectamine 2000 (L2K) was a positive control. Y axis, cell counts; X axis, Alexa 488 fluorescence. […] Means±SE, N=3.
We also tested UNC2383 for its ability to affect ASOs rather than SSOs. The ASO was designed to inhibit expression of the MDR1 gene and its product the P-glycoprotein multidrug transporter. […] Cell surface expression of P-glycoprotein was monitored using an Alexa 488 labeled anti-Pgp monoclonal antibody and flow cytometry. […]
SSO-mediated luciferase induction assays were conducted as previously described. (18) In short, HeLaLuc705 cells in 24 well culture plates were preincubated with SSO623 followed by brief treatment with the small molecule; at intervals thereafter, luciferase activity and protein content were determined. […] Cytotoxicity of 2383 was monitored using the Alamar Blue assay. […]

The conditions of data set [4]: mouse, in vivo.
Protocol: All animal procedures were conducted in compliance with guidelines of the UNC Laboratory Animal Medicine Department and with federal guidelines. […] (20, 32) EGFP654 mice were administered 35 mg/kg of SSO623 or mismatched oligonucleotide in buffer by intraperitoneal injection on two consecutive days. One day later, mice received either 5 mg/kg of UNC2383 in a 1:1 DMSO/PEG400 solution or only the diluent, via intraperitoneal injection. […] After 24 h, the second cohort was euthanized and tissue and cardiac blood samples were obtained. […] (31) Blood samples were analyzed by the UNC Animal Clinical Chemistry Core facility.

d = 2'-deoxy (DNA); m = 2'-O-methyl

As to `CCN(CC)CCCC(C)Nc1ccnc2cc(Cl)ccc12` (stereo not drawn) [Chloroquine, chloroquine, reference compound], the “SSO-mediated luciferase induction, comparison with chloroquine” value in the data set on HeLaLuc705 cells (FIG. 9C, 2 h, chloroquine also 16 h) is on record as “little effect”.

Consider `CC(C)(C)c1cc(C(C)(C)C)c(NC(=O)c2c[nH]c3ccccc3c2=O)cc1O` [Ivactafor®/Kalydeco®, reference compound], for which the “CFTR channel activity / functional correction” value is given as “minimal effect” in data set [1] and “no effect” in data set [1] (listed as Kalydeco®).

As to `O=C(Nc1nc2ccccc2n1CCN1CCCC1)c1cc2cc(Br)ccc2o1` [UNC4251], the EC50 with HeLaLuc705 cells was found to be 2 µM. Moreover, the CC50 at 2 h in data set [2] is 7 µM. Further, in the data set on HeLa Luc705 cells, the TC50/EC50 is 3.5.

The molecule `COc1ccc2oc(C(=O)Nc3nc4ccccc4n3CCN3CCCC3)cc2c1` [UNC4253] showed an EC50 with HeLaLuc705 cells of 11 µM. Also, the CC50 at 2 h in data set [2] was 48 µM. Further, the TC50/EC50 with HeLa Luc705 cells stood at 4.4.

`O=C(Nc1nc2cc(Cl)ccc2n1CCN1CCCC1)c1cc2cc(Cl)ccc2o1` [UNC4425] yielded an EC50 in the data set on HeLaLuc705 cells of 6 µM. In addition, in data set [2], the CC50 at 2 h is 12.5 µM. Moreover, in the data set on HeLa Luc705 cells, the TC50/EC50 amounted to 2.1.

For `Cc1ccc2c(c1)nc(NC(=O)c1cc3cc(Cl)ccc3o1)n2CCN1CCCC1` [UNC4426], a half-maximal response in the data set with HeLaLuc705 cells (EC50) required 3.5 µM. Besides, in data set [2], the CC50 at 2 h turned out to be 13 µM. For the same molecule, the TC50/EC50 in the data set on HeLa Luc705 cells worked out at 3.7.

“ASO: anti-MDR1 antisense oligonucleotide 5′-CCATCccgacctcgcGCTCC-3′ (SEQ ID NO: 5) (antisense CCATCCCGACCTCGCGCTCC; sugars from the 5' end m5 d10 m5, all phosphorothioate, methylation of C and T or U not given here) [reference compound]”: the “Pgp expression on the cell surface” value in data set [3] is “virtually no effect”.

“SSO623: 2′-O Me phosphorothioate splice switching oligonucleotide 5′-GTTATTCTTTAGAATGGTGC-3′ (SEQ ID NO: 4) (all 2'-O-methyl, all phosphorothioate, T or U not given here)”: in data set [4], the ALT is given as 51 +/− 8 U/L, the AST is recorded as 65 +/− 23 U/L, the BUN turned out to be 23 ± 2 mg/dL and the Hb came to 13.8 ± 0.8 g/dL. The Platelets in data set [4] was 824 +/− 266 × 10^3/ul.
